EPSA and IC50 data for eleven compounds are collected here from patent US20260022143A1, “Cyclic Peptide Inhibitors of IL-23” (JANSSEN PHARMACEUTICA NV, priority 2022, published 2026).

Where two headings read alike, the source gives them in different places. Positions of bridges follow the written chain, without caps; N, C: chain ends. Non-standard residues stand in square brackets, D forms with d. Residues, ends and D or L forms follow the SMILES beside them. *: point of attachment. Trp(7-Me) = Cc1cccc2c(C[C@H](N)C(=O)O)c[nH]c12; 2Nal = N[C@@H](Cc1ccc2ccccc2c1)C(=O)O; 3Pal = N[C@@H](Cc1cccnc1)C(=O)O; Lys(Me) = CNCCCC[C@H](N)C(=O)O; Pen = CC(C)(S)[C@H](N)C(=O)O; Thp = NC1(C(=O)O)CCOCC1; Sar = CNCC(=O)O; X2 = CNCC*

The nature of data set [1]: Exposed Polar Surface Area (EPSA). It counts as physicochemical. The note with it: SFC on Chirex 3014 column, sample 1 mM DMSO stock. The method in brief: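 SFC retention on a Chirex 3014 (S-valine/(R)-1-(α-naphthyl)ethylamine) column at 35 °C, 4 mL/min, 14 MPa outlet, 5–60% methanol/20 mM ammonium formate gradient in CO2. Retention times converted to EPSA (Å²) via linear calibration with 8 standards; samples from 1 mM DMSO stock, run in duplicate.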

Data set [2] has as its target T1, IL-23R (Homo sapiens, UniProt Q5VWK5).
T1 construct: host or cells: HEK293
T1 sequence (Q5VWK5 24-629): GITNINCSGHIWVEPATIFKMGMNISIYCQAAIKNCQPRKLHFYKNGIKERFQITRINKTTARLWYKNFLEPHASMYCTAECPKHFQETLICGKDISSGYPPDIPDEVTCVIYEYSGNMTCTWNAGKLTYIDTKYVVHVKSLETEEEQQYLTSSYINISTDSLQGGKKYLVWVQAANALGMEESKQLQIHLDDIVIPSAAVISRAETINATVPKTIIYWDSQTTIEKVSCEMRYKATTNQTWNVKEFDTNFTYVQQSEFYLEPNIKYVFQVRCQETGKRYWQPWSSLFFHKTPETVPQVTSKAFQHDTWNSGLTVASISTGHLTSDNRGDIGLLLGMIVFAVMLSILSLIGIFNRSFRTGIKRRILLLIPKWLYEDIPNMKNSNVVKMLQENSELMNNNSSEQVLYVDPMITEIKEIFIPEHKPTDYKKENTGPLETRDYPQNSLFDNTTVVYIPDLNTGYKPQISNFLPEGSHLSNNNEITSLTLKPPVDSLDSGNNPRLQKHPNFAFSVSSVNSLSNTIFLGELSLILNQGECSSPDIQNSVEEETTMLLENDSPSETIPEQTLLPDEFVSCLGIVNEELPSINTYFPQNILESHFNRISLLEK
Kind of data set: IL23R Reporter Assay. The conditions noted are these: HEK293 cells containing IL-23R, IL-12RP1 and STAT-inducible firefly luciferase reporter; 10 ng/mL IL-23 (EC90); 5 h at 37° C.; read-out: IL23R Reporter Assay. It counts as cell-based.

`CC(=O)NC(COCCOCC[N+](C)(C)C)C(=O)N[C@@H]1C(=O)N[C@@H](CC(=O)N(C)C)C(=O)N[C@@H]([C@@H](C)O)C(=O)N[C@@H](Cc2c[nH]c3c(C)cccc23)C(=O)N[C@@H](CCCCN(C)C(C)=O)C(=O)N[C@H](C(=O)N[C@@H](Cc2ccc(OCCn3cc(CCCC[N+](C)(C)C)nn3)cc2)C(=O)N[C@@H](Cc2ccc3ccccc3c2)C(=O)NC2(C(=O)N[C@@H](CCCCN(C)C(C)=O)C(=O)N[C@@H](CC(N)=O)C(=O)N[C@@H](Cc3cccnc3)C(=O)N(C)CC(=O)N(C)C)CCOCC2)C(C)(C)SSC1(C)C` (mixture of isomers) [compound 545, MeCO-APEG2Ser(RS)-Pen(3)-N(N(Me)2)-T-7MeW-K(NMeAc)-Pen(3)-Y(OTzlTMA4)-2Nal-THP-K(NMeAc)-N-3Pya-Sar-CON(Me)2]: the EPSA in data set [1] (read-out: EPSA) came out at 154 A^2. Further, the IC50 in data set [2] turned out to be 0.83 nM.

On to `CC(=O)NCCCC[C@@H]1NC(=O)[C@H](Cc2c[nH]c3c(C)cccc23)NC(=O)[C@H]([C@@H](C)O)NC(=O)[C@H](CC(N)=O)NC(=O)[C@@H](NC(=O)C(COCCOCC[N+](C)(C)C)NC(C)=O)C(C)(C)SSC(C)(C)[C@@H](C(=O)N[C@@H](Cc2ccc(OCCN)cc2)C(=O)N[C@@H](Cc2ccc3ccccc3c2)C(=O)NC2(C(=O)N[C@@H](CCC(=O)O)C(=O)N[C@@H](CC(N)=O)C(=O)N[C@@H](Cc3cccnc3)C(=O)N(C)CC(N)=O)CCOCC2)NC1=O` (mixture of isomers) [compound 553, MeCO-APEG2Ser(RS)-Pen(3)-N-T-7MeW-K(Ac)-Pen(3)-AEF-2Nal-THP-E-N-3Pya-Sar-CONH2], for which the EPSA in data set [1] (read-out: EPSA) is 185 A^2. In addition, the IC50 in data set [2] turned out to be 4.5 nM.

Consider `CC(=O)NCCCC[C@H](NC(=O)C1(NC(=O)[C@H](Cc2ccc3ccccc3c2)NC(=O)[C@H](Cc2ccc(OCCN)cc2)NC(=O)[C@H]2NC(=O)[C@H](CCCCN(C)C(C)=O)NC(=O)[C@H](Cc3c[nH]c4c(C)cccc34)NC(=O)[C@H]([C@@H](C)O)NC(=O)[C@H](CC(N)=O)NC(=O)[C@@H](NC(=O)C(COCCOCC[N+](C)(C)C)NC(C)=O)C(C)(C)SSC2(C)C)CCOCC1)C(=O)N[C@@H](CC(N)=O)C(=O)N[C@@H](Cc1cccnc1)C(=O)N(C)CC(N)=O` (mixture of isomers) [compound 554, MeCO-APEG2Ser(RS)-Pen(3)-N-T-7MeW-K(Ac)-Pen(3)-AEF-2Nal-THP-K(Ac)-N-3Pya-Sar-CONH2], for which the EPSA in data set [1] (read-out: EPSA) is 171 A^2. Also, the IC50 in data set [2] was determined as 3 nM.

For the compound `CC(=O)NCCCC[C@@H]1NC(=O)[C@H](Cc2c[nH]c3c(C)cccc23)NC(=O)[C@H]([C@@H](C)O)NC(=O)[C@H](CC(N)=O)NC(=O)[C@@H](NC(=O)C(COCCOCC[N+](C)(C)C)NC(C)=O)C(C)(C)SSC(C)(C)[C@@H](C(=O)N[C@@H](Cc2ccc(OCCCCC[N+](C)(C)C)cc2)C(=O)N[C@@H](Cc2ccc3ccccc3c2)C(=O)NC2(C(=O)N[C@@H](CCCCNC(C)=O)C(=O)N[C@@H](CC(N)=O)C(=O)N[C@@H](Cc3cccnc3)C(=O)N(C)CC(N)=O)CCOCC2)NC1=O` (mixture of isomers) [compound 556, MeCO-APEG2Ser(RS)-Pen(3)-N-T-7MeW-K(Ac)-Pen(3)-TMAPF-2Nal-THP-K(Ac)-N-3Pya-Sar-CONH2], the EPSA in data set [1] (read-out: EPSA) stood at 163 A^2. For the same compound, in data set [2], the IC50 amounted to 5.9 nM.

`CC(=O)N[C@@H]1C(=O)N[C@@H](CC(=O)N(C)C)C(=O)N[C@@H]([C@@H](C)O)C(=O)N[C@@H](Cc2c[nH]c3c(C)cccc23)C(=O)N[C@H](COCCOCC[N+](C)(C)C)C(=O)N[C@H](C(=O)N[C@@H](Cc2ccc(OCCOCCOCC[N+](C)(C)C)cc2)C(=O)N[C@@H](Cc2ccc3ccccc3c2)C(=O)NC2(C(=O)N[C@@H](COCCOCC[N+](C)(C)C)C(=O)N[C@@H](CC(N)=O)C(=O)N[C@@H](Cc3cccnc3)C(=O)N(C)CC(=O)N(C)C)CCOCC2)C(C)(C)SSC1(C)C` (relative stereo) [compound 255, MeCO-Pen(3)-N(N(Me)2)-T-7MeW-APEG2Ser(R*)-Pen(3)-APEG3F-2Nal-THP-APEG2Ser(S*)-N-3Pya-Sar-CON(Me)2]: in data set [1] (read-out: EPSA), the EPSA is 141 A^2. For the same compound, the IC50 in data set [2] is 22 nM.

`CC(=O)N[C@@H]1C(=O)N[C@@H](CC(=O)N(C)C)C(=O)N[C@@H]([C@@H](C)O)C(=O)N[C@@H](Cc2c[nH]c3c(C)cccc23)C(=O)N[C@H](COCCOCC[N+](C)(C)C)C(=O)N[C@H](C(=O)N[C@@H](Cc2ccc(OCCOCCOCC[N+](C)(C)C)cc2)C(=O)N[C@@H](Cc2ccc3ccccc3c2)C(=O)NC2(C(=O)N[C@@H](CCCCN(C)C(C)=O)C(=O)N[C@@H](CC(N)=O)C(=O)N[C@@H](Cc3cccnc3)C(=O)N(C)CC(=O)N(C)C)CCOCC2)C(C)(C)SSC1(C)C` (relative stereo) [compound 268, MeCO-Pen(3)-N(N(Me)2)-T-7MeW-APEG2Ser(R*)-Pen(3)-APEG3F-2Nal-THP-K(NMeAc)-N-3Pya-Sar-CON(Me)2]: in data set [1] (read-out: EPSA), the EPSA was found to be 148 A^2. For the same compound, the IC50 in data set [2] amounted to 110 nM.

With `CC(=O)N[C@@H](COCCOCC[N+](C)(C)C)C(=O)N[C@@H]1C(=O)N[C@@H](CC(=O)N(C)C)C(=O)N[C@@H]([C@@H](C)O)C(=O)N[C@@H](Cc2c[nH]c3c(C)cccc23)C(=O)N[C@@H](CCCCN(C)C(C)=O)C(=O)N[C@H](C(=O)N[C@@H](Cc2ccc(OCCOCCOCC[N+](C)(C)C)cc2)C(=O)N[C@@H](Cc2ccc3ccccc3c2)C(=O)NC2(C(=O)N[C@@H](CCCCN(C)C(C)=O)C(=O)N[C@@H](CC(N)=O)C(=O)N[C@@H](Cc3cccnc3)C(=O)N(C)CC(=O)N(C)C)CCOCC2)C(C)(C)SSC1(C)C` (relative stereo) [compound 318, MeCO-APEG2Ser(S*)-Pen(3)-N(N(Me)2)-T-7MeW-K(NMeAc)-Pen(3)-APEG3F-2Nal-THP-K(NMeAc)-N-3Pya-Sar-CON(Me)2], the EPSA in data set [1] (read-out: EPSA) came to 151 A^2. Moreover, the IC50 in data set [2] was found to be 0.89 nM.

As for `CC(=O)NC(COCCOCC[N+](C)(C)C)C(=O)N[C@@H]1C(=O)N[C@@H](CC(=O)N(C)C)C(=O)N[C@@H]([C@@H](C)O)C(=O)N[C@@H](Cc2c[nH]c3c(C)cccc23)C(=O)N[C@@H](CCCCN(C)C(C)=O)C(=O)N[C@H](C(=O)N[C@@H](Cc2ccc(OCCOCCOCC[N+](C)(C)C)cc2)C(=O)N[C@@H](Cc2ccc3ccccc3c2)C(=O)NC2(C(=O)N[C@@H](CCCCN(C)C(C)=O)C(=O)N[C@@H](CC(N)=O)C(=O)N[C@@H](Cc3cccnc3)C(=O)N(C)CC(=O)N(C)C)CCOCC2)C(C)(C)SSC1(C)C` (relative stereo) [compound 319, MeCO-APEG2Ser(R*)-Pen(3)-N(N(Me)2)-T-7MeW-K(NMeAc)-Pen(3)-APEG3F-2Nal-THP-K(NMeAc)-N-3Pya-Sar-CON(Me)2], in data set [1] (read-out: EPSA), the EPSA is 151 A^2. For the same compound, the IC50 in data set [2] came to 1.8 nM.

In the case of `CC(=O)N(C)CCCC[C@@H]1NC(=O)[C@H](Cc2c[nH]c3c(C)cccc23)NC(=O)[C@H]([C@@H](C)O)NC(=O)[C@H](CC(=O)N(C)C)NC(=O)[C@@H](NC(=O)CCOCCOCC[N+](C)(C)C)C(C)(C)SSC(C)(C)[C@@H](C(=O)N[C@@H](Cc2ccc(OCCN)cc2)C(=O)N[C@@H](Cc2ccc3ccccc3c2)C(=O)NC2(C(=O)N[C@@H](CCN(C)C(C)=O)C(=O)N[C@@H](CC(N)=O)C(=O)N[C@@H](Cc3cccnc3)C(=O)N(C)CC(=O)N(C)C)CCC(F)(F)C2)NC1=O` (single isomer, unassigned) [compound 179, cPEG3aCO-Pen(3)-N(N(Me)2)-T-7MeW-K(NMeAc)-Pen(3)-AEF-2Nal-diFCpx-Dab(NMeAc)-N-3Pya-Sar-CON(Me)2], the EPSA in data set [1] (read-out: EPSA) was determined as 147 A^2. Further, in data set [2], the IC50 came out at 3 nM.

In turn, `CC(=O)NCCCC[C@@H]1NC(=O)[C@H](Cc2c[nH]c3c(C)cccc23)NC(=O)[C@H]([C@@H](C)O)NC(=O)[C@H](CC(N)=O)NC(=O)[C@@H](NC(C)=O)C(C)(C)SSC(C)(C)[C@@H](C(=O)N[C@@H](Cc2ccc(OCC3CCC([N+](C)(C)C)CC3)cc2)C(=O)N[C@@H](Cc2ccc3ccccc3c2)C(=O)NC2(C(=O)N[C@@H](CCCCNC(C)=O)C(=O)N[C@@H](CC(N)=O)C(=O)N[C@@H](Cc3cccnc3)C(=O)N(C)CC(N)=O)CCOCC2)NC1=O` (single isomer, unassigned) [compound 531, MeCO-Pen(3)-N-T-7MeW-K(Ac)-Pen(3)-ACHMF(R*, S*)-2Nal-THP-K(Ac)-N-3Pya-Sar-CONH2] yielded an EPSA in data set [1] of 165.96 Å^2. The IC50 in data set [2] was found to be 3.7 nM.

As to `CNCCOc1ccc(C[C@H](NC(=O)[C@H]2NC(=O)[C@H](CCCCN(C)C(C)=O)NC(=O)[C@H](Cc3c[nH]c4c(C)cccc34)NC(=O)[C@H]([C@@H](C)O)NC(=O)[C@H](CC(=O)NC)NC(=O)[C@@H](NC(C)=O)C(C)(C)SSC2(C)C)C(=O)N[C@@H](Cc2ccc3ccccc3c2)C(=O)NC2(C(=O)N[C@@H](CCCCN(C)C(C)=O)C(=O)N[C@@H](CC(N)=O)C(=O)N[C@@H](Cc3cccnc3)C(=O)N(C)CC(=O)NC)CCOCC2)cc1` [SEQ ID 67] (Ac-[Pen]D(NHMe)T[Trp(7-Me)][Lys(Me)](Ac)[Pen]Y(X2)[2Nal][Thp][Lys(Me)](Ac)N[3Pal][Sar]-NHMe; disulfide 1-6 (inferred)), the EPSA in data set [1] (listed as 2) came out at 184 Å^2; in data set [1] (read-out: EPSA), 150 A^2. The IC50 in data set [2] was found to be 1050 nM.
